Results reported in patent EP1138666B1, “A preparation method for 4-(P-methoxyphenyl)-2-amino-butane and an insecticidal composition comprising it” (Council of Scientific and Industrial Research, priority 2000, dated 2001).

Columns and labels:
[1] = test system: 4th instar larvae of Spilarctia Obliqua; experiment: growth inhibition assay, diet-mix method, larval weight gain or loss; assay type: in vivo; settings: for growth inhibition: result in words, bioassay studies
Experimental: (§1) The compound having formula (1) was evaluated as feeding deterrent and growth inhibitor against 4th in star larvae of spilarctia obliqua (Bihar hairy caterpillar). This insect attacks more than twenty cash crops like urd, moong, arhar, mint and coleus etc. Several synthetic insecticides like quinalphos, Phosphamidon and synthetic pyrethroids are commercially used to manage this insect pest. But, the insect is developing resistance towards some of these insecticides. Therefore, it has now become imperative to search for new ecologically safe, environmentally sound and non-toxic chemicals to manage this pest.
(§2) With compound having formula (1) insect feeding deterrency and growth inhibition was tested by diet-mix method. In this method, 4-(p-methoxyphenyl)-2-aminobutane,the compound having formula (1) was dissolved in acetone to make various concentrations ranging from 1000 to 5000 ppm. Test solution was mixed in the artificial diet of the insect so that each gram of diet contained 60-300 µg of the compound (1). 4th in star larva (newly molted) starved four hours, was weighed and released on treated artificial diet in thirty replications. In control, only solvent acetone was mixed and azadirachtin at 1000 ppm concentration was taken as standard for feeding bioassay. After 24 hours, number of fecal pellets produced were counted, and the data were analyzed for % feeding deterrency. Some experiments were continued for next 24 hours and weights of the larva were taken daily. After 3 days, experiment was discontinued and weight gain or loss was analyzed for % growth inhibition.
Diflubenzuron at 5 ppm was taken as a standard in case of growth inhibitory assay. The test result of compound having formula (1) in terms of its feeding deterrency and growth inhibition as compared to standards azadirachtin and diflubenzuron are given in table 1.

[2] = test system: 4th instar larvae of Spilarctia Obliqua; experiment: feeding deterrency (antifeedant) bioassay, diet-mix method, fecal pellet count; assay type: in vivo; settings: for % feeding deterrency: artificial diet, after 24 hours; for antifeedant activity: result in words, bioassay studies
Experimental: as §1, §2

[3] = sensitivity to light (UV and sunlight); assay type: physicochemical
[4] = Spilarctia obliqua, 72 h, read-out: % growth inhibition

## O=C(NC(=O)c1c(F)cccc1F)Nc1ccc(Cl)cc1 [Diflubenzuron, reference compound]
[1]; Spilarctia obliqua, 72 h, 5 ppm, artificial diet, after 3 days
  inhibition at 5 ppm: 100%

## C/C=C(\C)C(=O)O[C@H]1C[C@@H](OC(C)=O)[C@@]2(C(=O)OC)CO[C@H]3[C@@H](O)[C@@](C)([C@]45O[C@@]4(C)[C@H]4C[C@@H]5O[C@@H]5OC=C[C@@]54O)[C@H]4[C@]1(CO[C@]4(O)C(=O)OC)[C@@H]32 [Azadirachtin, reference compound]
[2]; 1000 ppm
  % feeding deterrency: 100.0%
[3]
  sensitivity to light: photosensitive

## CC(O)CCc1ccc(O)cc1 (stereo not drawn) [compound (2), 4-(p-hydroxyphenyl)-butan-2-ol]
[2]
  antifeedant activity: not found to be active
[1]
  growth inhibition: not found to be active

## COc1ccc(CCC(C)N)cc1 (stereo not drawn) [Compound 1, 4-(p-methoxyphenyl)-2-amino-butane]
[2]; 1000 ppm
  % feeding deterrency: 32.0%
[2]; 2000 ppm
  % feeding deterrency: 40.0%
[2]; 3000 ppm
  % feeding deterrency: 64.0%
[2]; 4000 ppm
  % feeding deterrency: 82.0%
[2]; 5000 ppm
  % feeding deterrency: 100.0%
[2]
  antifeedant activity: significant activity
[1]; [4]
  inhibition at 1000 ppm: 48%
  inhibition at 2000 ppm: 59%
  inhibition at 3000 ppm: 72%
  inhibition at 4000 ppm: 100%
  inhibition at 5000 ppm: 128%
[1]
  growth inhibition: significant activity
[3]
  sensitivity to light: not sensitive to light
